The values that follow come from patent publication US20250302816A1, “DISRUPTION OF EPITHELIAL BARRIERS FOR MOLECULAR DELIVERY ENHANCEMENT OR EXTRACTION OF EXTRACELLULAR FLUIDS” (The University of Nottingham, priority 2022, published 2025).

The test system of this assay is ARPE-19 cell layers. Briefly: Transwell drug transport across ARPE-19 cell layers with or without 3OC12-HSL. In kind it is cell-based, human. The note with it: 3OC12-HSL 200 μM. As for the experimental part:
FIG. 1: Macromolecular therapeutics transported across ARPE-19 cell layers in the absence and presence of 3OC12-HSL transported into the basolateral chamber over a period of five hours. Permeability experiments were initiated by applying 0.5 ml of the test solutions (250 μg/ml Aflibercept/Bevacizumab/or Doxorubicin diluted in HBSS/HEPES) to the apical side of the cells (donor compartment of the Transwell) with or without 3OC12-HSL (200 μM). Drug permeability was determined by sampling the basolateral solution at regular time intervals. Data points are expressed as means±SEM, derived from three replicates in triplicate. p values of <0.05 were considered statistically significant. *, ** and *** denote p<0.05, p<0.01 and p<0.001, respectively.
Calu-3 cells obtained from American Type Culture Collection, USA were cultured using Dulbecco's Modified Eagle Medium (DMEM) supplemented with penicillin (100 U/mL), streptomycin (0.1 mg/mL), amphotericin (0.25 μg/mL), non-essential amino acids (NEM, 1%) and Fetal Bovine Serum (FBS, 10% v/v, Sigma-Aldrich, UK). The human-derived RPE cell line ARPE-19 was obtained from American Type Culture Collection. Cells were grown in Dulbecco's Modified Eagle Medium: F12 (1:1; Gibco, Invitrogen, Carlsbad, CA), including 10% inactivated fetal bovine serum, 100 units/mL penicillin, 100 μg/mL streptomycin, and 2 mM L-glutamine (Sigma-Aldrich). Caco-2 cells were grown in complete culture medium (DMEM supplemented with 17% FBS and 1% antibiotic-antimycotic solution). All cells were kept in a water-jacketed incubator (model 3546, Forma Scientific, Inc., Marietta, OH, USA) maintained at 37° C. and an atmosphere of humidified air with 5% CO2. Medium was replaced every other day until cells reached the 80-90% confluence desired for re-plating or culturing mature, polarised barrier models.
When confluent, cells were seeded on Transwell® filters (12 mm diameter, 0.4 μm pore size; Corning Life Sciences, Holland) at 10^5 cells/cm^2. […]
Three polarised epithelial in-vitro tissue models, including lung epithelium (Calu-3), retinal pigment epithelium (ARPE-19) and intestinal epithelial (Caco-2) were used to study the efficiency of 200 μM 3OC12-HSL as a paracellular permeability enhancer for three different drugs: bevacizumab, aflibercept and doxorubicin (applied concentrations 250 μg/mL). The amount of drugs transported was determined via the conversion of fluorescence intensity to amount (μg or ng), using calibration curves constructed via serial standard dilutions. […]
Permeability experiments were initiated by applying 0.5 mL of the test solutions to the apical side of the cells (donor compartment of the Transwell®). […] Drug permeability was determined by sampling the basolateral solution at regular time intervals. […]

Turning to `CCCCCCCCCC(=O)CC(=O)N[C@H]1CCOC1=O` [Agent 3OC12-HSL, N-(3-oxododecanoyl) homoserine lactone], where the note is “bevacizumab 250 μg/ml, at 60 minutes of exposure”, the “increase of bevacizumab permeability by 3OC12-HSL” value is given as 2.5 fold. The “enhancement of doxorubicin transport by 3OC12-HSL” value (doxorubicin 250 μg/ml, after 5 hours) was 6 fold.
